Earlier results, collected in article PMC9436819 (JACC: Basic to Translational Science, 2022).

Columns and labels:
[1] = test system: patients with obstructive HCM; design: method as in PMID 32871100; conditions: cited from earlier work
[2] = design: method as in PMID 30044681, PMID 31035291; conditions: cited from earlier work

For `CC(C)n1c(=O)cc(N[C@@H](C)c2ccccc2)[nH]c1=O` [Mavacamten], the “LV outflow tract pressure gradients” value [1] is listed as “reduced”, the “Improving exercise capacity and health status” value ([1]; vs placebo) is listed as “superior to placebo” and the “Time required to reach a steady state” value [2] is listed as 6 weeks.
